In one test the target is WDR5 (Homo sapiens (Human), UniProt P61964). Description: TR-FRET binding assay (displacement of 10mer-Thr-FAM probe from WDR5).
For test [1], the system named is MV4:11 human cancer cell lines. Description: Anti-proliferative activity, CellTiter-Glo viability assay, 7 day protocol. The class given is cell-based. The settings on record: Homo sapiens, MV4-11, 168 h, MV4:11 cells, 7 day incubation, read-out: GI50 on cellular proliferation of MV4:11 human cancer cell lines. The procedure, abridged: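 MV4:11 cells seeded at 3600 cells/ml and exposed to compounds for 7 days, 0.1% DMSO final. Viability measured by CellTiter-Glo luminescence. GI50 from three biological replicates, each in technical triplicate, given as mean ± S.E.M.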

The mark [2] stands for this setting: read-out: Ki for Inhibition of WDR5 by TR-FRET assay, TR-FRET, 10mer-Thr-FAM probe, WDR5-His tag 2 nM, pH 7.0.
Setting [3] is: read-out: Ki for Inhibition of WDR5 by TR-FRET assay.

Each structure is given as a SMILES string. Like-named read-outs stand apart in the source and are kept apart here.

As for `COc1cc(CNC(=O)c2cc(Cn3ccoc3=N)cc(-c3ccc(F)cc3C)c2)cc(OC)c1` [Example 229, N-(3,5-Dimethoxybenzyl)-4′-fluoro-5-((2-iminooxazol-3(2H)-yl)methyl)-2′-methyl-[1,1′-biphenyl]-3-carboxamide], affinity on WDR5 was put at a Ki of 0.21 nM. The GI50 in test [1] stood at 550 nM.

`COc1cc(OC)cc(C(NC(=O)c2cc(Cn3ccoc3=N)cc(-c3ncccc3C(F)(F)F)c2)C2CC2)c1` (stereo not shown) [Example 235, N-(Cyclopropyl(3,5-dimethoxyphenyl)methyl)-3-((2-iminooxazol-3(2H)-yl)methyl)-5-(3-(trifluoromethyl)pyridin-2-yl)benzamide]: on WDR5 (setting [2]), the Ki (as a rule, the equilibrium dissociation constant of an inhibitor or competing ligand from its target) was found to be 3.5 nM. Further, the GI50 in test [1] is 3100 nM.

With `COc1cc(OC)cc(C(NC(=O)c2cc(Cn3ccoc3=N)cc(-c3ccc(F)cc3OC(F)F)c2)C2CC2)c1` (stereo not shown) [Example 236, N-(Cyclopropyl(3,5-dimethoxyphenyl)methyl)-2′-(difluoromethoxy)-4′-fluoro-5-((2-iminooxazol-3(2H)-yl)methyl)-[1,1′-biphenyl]-3-carboxamide], the Ki on WDR5 (setting [2]) was found to be 0.16 nM. In test [1], the GI50 was 450 nM.

`COc1cc(CNC(=O)c2cc(Cn3ccoc3=N)cc(-c3ncc(F)cc3C)c2)cc(OC)c1` [Example 238, N-(3,5-Dimethoxybenzyl)-3-(5-fluoro-3-methylpyridin-2-yl)-5-((2-iminooxazol-3(2H)-yl)methyl)benzamide]: on WDR5 (setting [3]), the Ki turned out to be 2.9 nM. The GI50 in test [1] was found to be 3800 nM.

Turning to `Cc1ccnc([C@@H](NC(=O)c2cc(Cn3ccoc3=N)cc(-c3ccc(F)cc3C)c2)C2CC2)c1` [Example 247, (S)—N-(Cyclopropyl(4-methylpyridin-2-yl)methyl)-4′-fluoro-5-((2-iminooxazol-3(2H)-yl)methyl)-2′-methyl-[1,1′-biphenyl]-3-carboxamide], at WDR5 (setting [2]), the Ki stood at 0.14 nM. Besides, the GI50 in test [1] worked out at 270 nM.

On to `Cc1cc([C@@H](NC(=O)c2cc(Cn3ccoc3=N)cc(-c3ccc(F)cc3Cl)c2)C2CC2)ccc1F` [Example 248, (S)-2′-Chloro-N-(cyclopropyl(4-fluoro-3-methylphenyl)methyl)-4′-fluoro-5-((2-iminooxazol-3(2H)-yl)methyl)-[1,1′-biphenyl]-3-carboxamide], for which the Ki at WDR5 (setting [2]) is < 0.1 nM. In test [1], the GI50 turned out to be 120 nM.

In the case of `Cc1cn(Cc2cc(C(=O)N[C@H](c3ccc(F)c(C)c3)C3CC3)cc(-c3cccnc3C(F)(F)F)c2)c(=N)o1` [Example 250, (S)—N-(Cyclopropyl(4-fluoro-3-methylphenyl)methyl)-3-((2-imino-5-methyloxazol-3(2H)-yl)methyl)-5-(2-(trifluoromethyl)pyridin-3-yl)benzamide], the Ki on WDR5 (setting [2]) was 0.4 nM. Moreover, the GI50 in test [1] stood at 570 nM.

For the compound `Cc1cc([C@@H](NC(=O)c2cc(Cn3ccoc3=N)cc(-c3cn(C)nc3C(F)(F)F)c2)C2CC2)ccc1F` [Example 259, (S)—N-(Cyclopropyl(4-fluoro-3-methylphenyl)methyl)-3-((2-iminooxazol-3(2H)-yl)methyl)-5-(1-methyl-3-(trifluoromethyl)-1H-pyrazol-4-yl)benzamide], the Ki on WDR5 (setting [3]) was < 0.1 nM. Besides, in test [1], the GI50 was < 100 nM.

Turning to `Cc1cc([C@@H](NC(=O)c2cc(Cn3ccoc3=N)cc(-c3cccnc3OC(F)F)c2)C2CC2)ccc1F` [Example 261, (S)—N-(Cyclopropyl(4-fluoro-3-methylphenyl)methyl)-3-(2-(difluoromethoxy)pyridin-3-yl)-5-((2-iminooxazol-3(2H)-yl)methyl)benzamide], the Ki on WDR5 (setting [2]) was 0.28 nM. Further, the GI50 in test [1] was found to be 730 nM.

Turning to `Cn1cc(-c2cc(Cn3ccoc3=N)cc(C(=O)N[C@H](c3ccc(Cl)c(Cl)c3)C3CC3)c2)c(C(F)(F)F)n1` [Example 268, (S)—N-(Cyclopropyl(3,4-dichlorophenyl)methyl)-3-((2-iminooxazol-3(2H)-yl)methyl)-5-(1-methyl-3-(trifluoromethyl)-1 t-pyrazol-4-yl)benzamide], on WDR5 (setting [3]), the Ki is < 0.1 nM. Further, the GI50 in test [1] was < 100 nM.

Take `Cn1cc(-c2cc(CN3CCOC3=N)cc(C(=O)N[C@H](c3ccc(Cl)c(Cl)c3)C3CC3)c2)c(C(F)(F)F)n1` [Example 269, (S)—V—N-(Cyclopropyl(3,4-dichlorophenyl)methyl)-3-((2-iminooxazolidin-3-yl)methyl)-5-(1-methyl-3-(trifluoromethyl)-1H-pyrazol-4-yl)benzamide]: on WDR5 (setting [2]), the Ki is < 0.1 nM. Moreover, in test [1], the GI50 was < 100 nM.

Regarding `Cc1cc([C@@H](NC(=O)c2cc(CN3CCOC3=N)cc(-c3ccc(F)cc3C(F)F)c2)C2CC2)ccc1F` [Example 272, (S)—N-(Cyclopropyl(4-fluoro-3-methylphenyl)methyl)-2′-(difluoromethyl)-4′-fluoro-5-((2-iminooxazolidin-3-yl)methyl)-[1,1′-biphenyl]-3-carboxamide], the Ki on WDR5 (setting [2]) is < 0.1 nM. Further, the GI50 in test [1] was 100 nM.

With `Cc1cc([C@@H](NC(=O)c2cc(CN3CCOC3=N)cc(-c3ccc(F)cc3OC(F)F)c2)C2CC2)ccc1F` [Example 273, (S)—N-(Cyclopropyl(4-fluoro-3-methylphenyl)methyl)-2′-(difluoromethoxy)-4′-fluoro-5-((2-iminooxazolidin-3-yl)methyl)-[1,1′-biphenyl]-3-carboxamide], the inhibitory constant (Ki) at WDR5 (setting [2]) was < 0.1 nM. Besides, the GI50 in test [1] is 140 nM.

Take `Cc1cc([C@@H](NC(=O)c2cc(Cn3ccoc3=N)cc(-c3ccc(F)cc3C(F)F)c2)C2CC2)ccc1F` [Example 274, (S)—N-(Cyclopropyl(4-fluoro-3-methylphenyl)methyl)-2′-(difluoromethyl)-4′-fluoro-5-((2-iminooxazol-3(2H)-yl)methyl)-[1,1′-biphenyl]-3-carboxamide]: at WDR5 (setting [2]), the Ki was < 0.1 nM. For the same compound, in test [1], the GI50 is < 100 nM.

As to `Cc1cc([C@@H](NC(=O)c2cc(CN3CCOC3=N)cc(-c3cn(C(C)C)nc3C(F)(F)F)c2)C2CC2)ccc1F` [Example 275, (S)—N-(Cyclopropyl(4-fluoro-3-methylphenyl)methyl)-3-((2iminooxazolidin-3-yl)methyl)-5-(1-isopropyl-3-(trifluoromethyl)-1H-pyrazol-4-yl)benzamide], the inhibitory constant (Ki) on WDR5 (setting [2]) was < 0.1 nM. The GI50 in test [1] is < 100 nM.

Consider `CCn1cc(-c2cc(Cn3ccoc3=N)cc(C(=O)N[C@H](c3ccc(Cl)c(Cl)c3)C3CC3)c2)c(C(F)(F)F)n1` [Example 280, (S)—N-(Cyclopropyl(3,4-dichlorophenyl)methyl)-3-(1-ethyl-3-(trifluoromethyl)-1H-pyrazol-4-yl)-5-((2-iminooxazol-3(2H)-yl)methyl)benzamide], for which the Ki on WDR5 (setting [2]) was < 0.1 nM. For the same compound, in test [1], the GI50 was < 100 nM.

Turning to `CCn1cc(-c2cc(CN3CCOC3=N)cc(C(=O)N[C@H](c3ccc(Cl)c(Cl)c3)C3CC3)c2)c(C(F)(F)F)n1` [Example 281, (S)—N-(Cyclopropyl(3,4-dichlorophenyl)methyl)-3-(1-ethyl-3-(trifluoromethyl)-1H-pyrazol-4-yl)-5-((2-iminooxazolidin-3-yl)methyl)benzamide], the Ki on WDR5 (setting [2]) is < 0.1 nM. Further, the GI50 in test [1] was < 100 nM.

As to `Cc1cc([C@@H](NC(=O)c2cc(CN3CCOC3=N)cc(-c3ccc(F)cc3C#N)c2)C2CC2)ccc1F` [Example 282, (S)-2′-Cyano-N-(cyclopropyl(4-fluoro-3-methylphenyl)methyl)-4′-fluoro-5-((2-iminooxazolidin-3-yl)methyl)-[1,1′-biphenyl]-3-carboxamide], at WDR5 (setting [2]), the Ki turned out to be 0.21 nM. For the same compound, the GI50 in test [1] came to 200 nM.

For the compound `Cc1cc([C@@H](NC(=O)c2cc(CN3CCOC3=N)cc(-c3ccc(F)cc3C(F)(F)F)c2F)C2CC2)ccc1F` [Example 283, (S)—N-(Cyclopropyl(4-fluoro-3-methylphenyl)methyl)-2,4′-difluoro-5-((2-iminooxazolidin-3-yl)methyl)-2′-(trifluoromethyl)-[1,1′-biphenyl]-3-carboxamide], the Ki at WDR5 (setting [2]) amounted to 0.02 nM. For the same compound, in test [1], the GI50 was determined as 120 nM.

Turning to `N=C1OCCN1Cc1cc(C(=O)N[C@H](c2ccc(Cl)c(Cl)c2)C2CC2)cc(-c2ncc(F)cc2C(F)(F)F)c1` [Example 284, (S)—N-(Cyclopropyl(3,4-dichlorophenyl)methyl)-3-(5-fluoro-3-(trifluoromethyl)pyridin-2-yl)-5-((2-iminooxazolidin-3-yl)methyl)benzamide], at WDR5 (setting [2]), the Ki was 0.11 nM. In addition, in test [1], the GI50 amounted to 270 nM.

For `Cc1cc([C@@H](NC(=O)c2cc(CN3CCOC3=N)cc(-c3ccc(F)cc3C(F)(F)F)c2)C2CC2)ccc1F` [Example 285, (S)—N-(Cyclopropyl(4-fluoro-3-methylphenyl)methyl)-4′-fluoro-5-((2-iminooxazolidin-3-yl)methyl)-2′-(trifluoromethyl)-[1,1′-biphenyl]-3-carboxamide], on WDR5 (setting [2]), the Ki is < 0.1 nM. For the same compound, the GI50 in test [1] is < 100 nM.

For the compound `CC(C)n1cc(-c2cc(CN3CCOC3=N)cc(C(=O)N[C@H](c3ccc(F)c(F)c3)C3CC3)c2)c(C(F)(F)F)n1` [Example 286, (S)—N-(Cyclopropyl(3,4difluorophenyl)methyl)-3-((2-iminooxazolidin-3-yl)methyl)-5-(1-isopropyl-3-(trifluoromethyl)-1H-pyrazol-4-yl)benzamide], on WDR5 (setting [2]), the Ki was < 0.1 nM. Further, in test [1], the GI50 is < 100 nM.

As for `Cc1cc([C@@H](NC(=O)c2cc(CN3CCOC3=N)cc(-c3cc(C(F)(F)F)nn3C)c2)C2CC2)ccc1F` [Example 287, (S)—N-(Cyclopropyl(4-fluoro-3-methylphenyl)methyl)-3-((2-iminooxazolidin-3-yl)methyl)-5-(1-methyl-3-(trifluoromethyl)-1H-pyrazol-5-yl)benzamide], at WDR5 (setting [3]), the Ki is < 0.1 nM. For the same compound, the GI50 in test [1] was determined as 100 nM.

The record behind these values is US10844044B2 (Vanderbilt University, priority 2018, dated 2020).
